{"source": "paper PMC9596378", "about": "“Discovery and molecular basis of subtype-selective cyclophilin inhibitors” (Nature Chemical Biology, 2022)", "assay_in_all_cases": "Chymotrypsin coupled prolyl-isomerase assay;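 as to CypD prolyl-isomerase raw dose-response reading (Fig. 6c): observed rate constant per well from one-phase association fit in s−1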", "key": {"CypD": {"biological_target": "CypD (Homo sapiens, UniProt P30405)", "sequence (P30405 45-207)": "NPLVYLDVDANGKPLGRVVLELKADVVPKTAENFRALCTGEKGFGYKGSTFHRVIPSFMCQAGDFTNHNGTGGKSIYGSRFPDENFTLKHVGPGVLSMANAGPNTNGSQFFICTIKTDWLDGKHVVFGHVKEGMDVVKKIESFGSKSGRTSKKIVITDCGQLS"}, "CypA": {"biological_target": "T1, CypA (Homo sapiens, UniProt P62937)", "T1 construct": "PPIA (UniProtKB Entry P62937: residues 1–165); made in house; host or cells: E. coli BL21(DE3)", "T1 sequence (P62937 whole entry, the tested form may be a part)": "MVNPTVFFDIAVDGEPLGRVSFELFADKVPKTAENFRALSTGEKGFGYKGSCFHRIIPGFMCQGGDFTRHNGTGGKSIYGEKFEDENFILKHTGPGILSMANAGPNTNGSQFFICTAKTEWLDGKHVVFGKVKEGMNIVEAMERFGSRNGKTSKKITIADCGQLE", "assay_type": "biochemical", "summary_of_the_method": "(§1)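 5 nM Cyp, HEPES pH 7.3/NaCl/Triton buffer, 2–3 °C; cpd 5 min, chymotrypsin 25 µM 5 min, then Suc-AAPF-AMC 5 µM in LiCl/TFE. Kinetic fluorescence 330 s. Per-well rate constants, normalized, IC50 from nonlinear fit.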"}, "CypG": {"biological_target": "T2, CypG (Homo sapiens, UniProt Q13427)", "T2 construct": "PPIG (UniProtKB Entry Q13427: residues 1–179); His6 with thrombin site (pET28a LIC leader) (N); host or cells: E. coli BL21(DE3)", "T2 sequence (Q13427 1-179)": "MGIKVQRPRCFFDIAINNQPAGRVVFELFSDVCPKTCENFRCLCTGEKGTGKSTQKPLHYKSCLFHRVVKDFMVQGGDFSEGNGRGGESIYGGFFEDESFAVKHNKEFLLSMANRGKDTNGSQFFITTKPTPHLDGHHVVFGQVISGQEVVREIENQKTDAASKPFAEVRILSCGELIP", "assay_type": "biochemical", "summary_of_the_method": "as §1"}}, "note": "Values joined by “and” are separate entries in the source; they are usually repeats but may differ in a detail not shown here. Equal entries are not always repeated. Where two headings read alike, the source gives them in different places.", "data": [{"molecule": "NC(=O)C1CCNC(=O)C=CC(=O)N2CCCC(Cc3ccccc3)(C2)C(=O)NC(Cc2ccc(-c3ccc(C=O)c(B(O)O)c3)cc2)C(=O)NCc2ccccc2CC(=O)N1", "note": "(stereo not shown) [Compound C3A]", "values": [{"measurement": "IC50", "setting": "CypD", "result": "600 ± 100", "unit": "nM"}, {"measurement": "CypD prolyl-isomerase raw dose-response reading (Fig. 6c)", "setting": "CypD; Dose 0.00114312 µM", "result": "0.06909 and 0.06564 and 0.08467"}, {"measurement": "CypD prolyl-isomerase raw dose-response reading (Fig. 6c)", "setting": "CypD; Dose 0.00342936 µM", "result": "0.0763 and 0.06566 and 0.07012"}, {"measurement": "CypD prolyl-isomerase raw dose-response reading (Fig. 6c)", "setting": "CypD; Dose 0.00457247 µM", "result": "0.04911 and 0.0434 and 0.06663 and 0.05943 and 0.05791 and 0.04481"}, {"measurement": "CypD prolyl-isomerase raw dose-response reading (Fig. 6c)", "setting": "CypD; Dose 0.0102881 µM", "result": "0.06833 and 0.05597 and 0.06694"}, {"measurement": "CypD prolyl-isomerase raw dose-response reading (Fig. 6c)", "setting": "CypD; Dose 0.0308642 µM", "result": "0.07034 and 0.05622 and 0.06"}, {"measurement": "CypD prolyl-isomerase raw dose-response reading (Fig. 6c)", "setting": "CypD; Dose 0.0411523 µM", "result": "0.05515 and 0.05553 and 0.04718 and 0.06514 and 0.05753 and 0.05809 and 0.04157"}, {"measurement": "CypD prolyl-isomerase raw dose-response reading (Fig. 6c)", "setting": "CypD; Dose 0.0925926 µM", "result": "0.06297 and 0.05517 and 0.06275"}, {"measurement": "CypD prolyl-isomerase raw dose-response reading (Fig. 6c)", "setting": "CypD; Dose 0.277778 µM", "result": "0.05848 and 0.04977 and 0.05604"}, {"measurement": "CypD prolyl-isomerase raw dose-response reading (Fig. 6c)", "setting": "CypD; Dose 0.833333 µM", "result": "0.04291 and 0.04333 and 0.04298"}, {"measurement": "CypD prolyl-isomerase raw dose-response reading (Fig. 6c)", "setting": "CypD; Dose 2.5 µM", "result": "0.03189 and 0.02949 and 0.03114"}, {"measurement": "IC50", "setting": "CypD; IC50 CypD, Independent replicate 1, mean±SEM of 3 technical replicates", "result": "700 ± 300", "unit": "nM"}, {"measurement": "IC50", "setting": "CypD; IC50 CypD, Independent replicate 2", "result": "600 ± 300", "unit": "nM"}, {"measurement": "IC50", "setting": "CypD; IC50 CypD, Independent replicate 3", "result": "410 ± 80", "unit": "nM"}, {"measurement": "IC50", "setting": "CypD; IC50 CypD, Independent replicate 4", "result": "~700", "unit": "nM"}, {"measurement": "IC50", "setting": "CypD; Wild-Type Cyclophilin Prolyl Isomerase Inhibition IC50 Values, CypD, wild-type CypD", "result": 600, "unit": "nM"}, {"measurement": "CypA prolyl-isomerase raw dose-response reading (Fig. 6c)", "setting": "CypA; Dose 0.00114312 µM", "result": "0.07306 and 0.07874 and 0.07172"}, {"measurement": "CypA prolyl-isomerase raw dose-response reading (Fig. 6c)", "setting": "CypA; Dose 0.00342936 µM", "result": "0.06275 and 0.05859"}, {"measurement": "CypA prolyl-isomerase raw dose-response reading (Fig. 6c)", "setting": "CypA; Dose 0.0102881 µM", "result": "0.07757 and 0.05083 and 0.08593"}, {"measurement": "CypA prolyl-isomerase raw dose-response reading (Fig. 6c)", "setting": "CypA; Dose 0.0308642 µM", "result": "0.09366 and 0.07648 and 0.07092"}, {"measurement": "CypA prolyl-isomerase raw dose-response reading (Fig. 6c)", "setting": "CypA; Dose 0.0925926 µM", "result": "0.1069 and 0.06289 and 0.07689"}, {"measurement": "CypA prolyl-isomerase raw dose-response reading (Fig. 6c)", "setting": "CypA; Dose 0.205761 µM", "result": "0.06396 and 0.05394 and 0.06349 and 0.0486 and 0.04768 and 0.0647 and 0.04401 and 0.05288"}, {"measurement": "CypA prolyl-isomerase raw dose-response reading (Fig. 6c)", "setting": "CypA; Dose 0.277778 µM", "result": "0.09488 and 0.06 and 0.09425"}, {"measurement": "CypA prolyl-isomerase raw dose-response reading (Fig. 6c)", "setting": "CypA; Dose 0.833333 µM", "result": "0.06403 and 0.06231 and 0.07443"}, {"measurement": "CypA prolyl-isomerase raw dose-response reading (Fig. 6c)", "setting": "CypA; Dose 2.5 µM", "result": "0.06101 and 0.05306 and 0.05126"}, {"measurement": "IC50", "setting": "CypA; Independent replicate 1, read-out: IC50 CypA", "result": "~3000", "unit": "nM"}, {"measurement": "IC50", "setting": "CypA; Independent replicate 2, read-out: IC50 CypA", "result": "2200 ± 700", "unit": "nM"}, {"measurement": "IC50", "setting": "CypA; Independent replicate 3, read-out: IC50 CypA", "result": "1600 ± 700", "unit": "nM"}, {"measurement": "IC50", "setting": "CypA; Independent replicate 4, read-out: IC50 CypA", "result": "4000 ± 2000", "unit": "nM"}, {"measurement": "IC50", "setting": "CypA; wild-type CypA, read-out: Wild-Type Cyclophilin Prolyl Isomerase Inhibition IC50 Values, CypA", "result": 3000, "unit": "nM"}, {"measurement": "CypG prolyl-isomerase raw dose-response reading (Fig. 6c)", "setting": "CypG; Dose 0.00457247 µM", "result": "0.04675 and 0.05256 and 0.06278"}, {"measurement": "CypG prolyl-isomerase raw dose-response reading (Fig. 6c)", "setting": "CypG; Dose 0.0137174 µM", "result": "0.05042 and 0.05542 and 0.04906"}, {"measurement": "CypG prolyl-isomerase raw dose-response reading (Fig. 6c)", "setting": "CypG; Dose 0.0411523 µM", "result": "0.05063 and 0.04839 and 0.04139"}, {"measurement": "CypG prolyl-isomerase raw dose-response reading (Fig. 6c)", "setting": "CypG; Dose 0.123457 µM", "result": "0.04982 and 0.05395 and 0.05565"}, {"measurement": "CypG prolyl-isomerase raw dose-response reading (Fig. 6c)", "setting": "CypG; Dose 0.37037 µM", "result": "0.04159 and 0.05179 and 0.03978"}, {"measurement": "CypG prolyl-isomerase raw dose-response reading (Fig. 6c)", "setting": "CypG; Dose 1.11111 µM", "result": "0.05731 and 0.0555 and 0.05308"}, {"measurement": "CypG prolyl-isomerase raw dose-response reading (Fig. 6c)", "setting": "CypG; Dose 3.33333 µM", "result": "0.04975 and 0.046 and 0.05109"}, {"measurement": "CypG prolyl-isomerase raw dose-response reading (Fig. 6c)", "setting": "CypG; Dose 10 µM", "result": "0.05239 and 0.04081 and 0.048"}, {"measurement": "IC50", "setting": "CypG; Independent replicate 1, read-out: IC50 CypG", "result": "> 10000", "unit": "nM"}, {"measurement": "IC50", "setting": "CypG; Independent replicate 2, read-out: IC50 CypG", "result": "~40000", "unit": "nM"}, {"measurement": "IC50", "setting": "CypG; Independent replicate 3, read-out: IC50 CypG", "result": "~26000", "unit": "nM"}, {"measurement": "IC50", "setting": "CypG; Independent replicate 4, read-out: IC50 CypG", "result": "~50000", "unit": "nM"}, {"measurement": "IC50", "setting": "CypG; wild-type CypG, read-out: Wild-Type Cyclophilin Prolyl Isomerase Inhibition IC50 Values, CypG", "result": 40000, "unit": "nM"}]}]}
